In US20240041042A1, “1-(PYRIDYL)-5-AZINYLPYRAZOLE DERIVATIVES, AND THEIR USE FOR CONTROL OF UNDESIRED PLANT GROWTH” (Bayer Aktiengesellschaft, priority 2020, published 2024):
Where two headings read alike, the source gives them in different places.

What was measured:
Format in all cases: in vivo
[1] = tested on: Amaranthus retroflexus (AMARE); assay: Pre-emergence herbicidal action against AMARE; details: visual scoring after about 3 weeks vs untreated controls
Procedure, shortened: (§1)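 Dosages of 320 g/ha or less; pre-emergence; WP or EC in aqueous spray, 0.5% additive, 600 l/ha; greenhouse; visual % effect after ~3 wk relative to control pots.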

[2] = tested on: Echinochloa crus-galli (ECHCG); assay: Pre-emergence herbicidal action against ECHCG; details: dosage 320 g/ha
Procedure, shortened: as §1

[3] = tested on: Lolium rigidum (LOLRI); assay: Pre-emergence herbicidal action against LOLRI
Procedure, shortened: as §1

[4] = tested on: Matricaria inodora (MATIN); assay: Pre-emergence herbicidal action against MATIN; details: dosage 320 g/ha
Procedure, shortened: as §1

[5] = tested on: Pharbitis purpurea (PHBPU); assay: Pre-emergence herbicidal action against PHBPU; details: dosage 320 g/ha
Procedure, shortened: as §1

[6] = tested on: Setaria viridis (SETVI); assay: Pre-emergence herbicidal action against SETVI
Procedure, shortened: as §1

[7] = tested on: Viola tricolor (VIOTR); assay: Pre-emergence herbicidal action against VIOTR
Procedure, shortened: as §1

[8] = tested on: Oryza sativa (ORYSA); details: pre-emergence, 80 g/ha, crop plant compatibility, in comparison to untreated controls
Procedure, shortened: (§2)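 Crop injury rated visually in percent against untreated plants roughly 3 weeks after treatment (0% no effect, 100% plants dead). Compounds, as WP or EC with 0.5% additive in 600 l/ha water, were applied to the covering soil right after sowing; greenhouse growth. Suffixes a, b, c denote different dosages.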

[9] = tested on: Zea mays (ZEAMX); details: pre-emergence, crop plant compatibility, in comparison to untreated controls
Procedure, shortened: as §2

[10] = tested on: Alopecurus myosuroides (ALOMY); assay: Post-emergence herbicidal action against ALOMY; details: visual rating about 3 weeks after treatment vs untreated controls (100% = plants have died, 0% = like control plants)
Procedure, shortened: (§3)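 Greenhouse plants sprayed at the one-leaf stage, 2–3 weeks after sowing, with WP or EC formulations plus 0.5% additive at 600 l/ha water. Activity rated visually after about 3 weeks versus untreated controls (100% = dead, 0% = like control), at 320 g/ha or lower.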

[11] = tested on: Amaranthus retroflexus (AMARE); assay: Post-emergence herbicidal action against AMARE
Procedure, shortened: as §3

[12] = tested on: Avena fatua (AVEFA); assay: Post-emergence herbicidal action against AVEFA; details: visual rating about 3 weeks after treatment
Procedure, shortened: as §3

[13] = tested on: Echinochloa crus-galli (ECHCG); assay: Post-emergence herbicidal action against ECHCG
Procedure, shortened: as §3

[14] = tested on: Matricaria inodora (MATIN); assay: Post-emergence herbicidal action against MATIN
Procedure, shortened: as §3

[15] = tested on: Pharbitis purpurea (PHBPU); assay: Post-emergence herbicidal action against PHBPU
Procedure, shortened: as §3

[16] = tested on: Polygonum convolvulus (POLCO); assay: Post-emergence herbicidal action against POLCO
Procedure, shortened: as §3

[17] = tested on: Setaria viridis (SETVI); assay: Post-emergence herbicidal action against SETVI; details: dosage 320 g/ha
Procedure, shortened: as §3

[18] = tested on: Verconica persica (VERPE); assay: Post-emergence herbicidal action against VERPE
Procedure, shortened: as §3

[19] = tested on: Oryza sativa (ORYSA); details: crop plant compatibility
Procedure, shortened: (§4)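 Test crops were treated 2 to 3 weeks after sowing, once they reached one leaf, by spraying compound in water with 0.5% additive at 600 l/ha. Visual scoring compared them with untreated controls roughly 3 weeks on, and appendices a, b and c denote different doses.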

[20] = tested on: Alopecurus myosuroides (ALOMY); assay: Pre-emergence herbicidal action against ALOMY; details: scored visually after about 3 weeks, 100% = plants have died
Procedure, shortened: as §1

[21] = tested on: Avena fatua (AVEFA); assay: Pre-emergence herbicidal action against AVEFA; details: 320 g/ha, visual scoring after about 3 weeks vs untreated controls
Procedure, shortened: as §1

[22] = tested on: Digitaria sanguinalis (DIGSA); assay: Pre-emergence herbicidal action against DIGSA
Procedure, shortened: as §1

[23] = tested on: Polygonum convolvulus (POLCO); assay: Pre-emergence herbicidal action against POLCO
Procedure, shortened: as §1

[24] = tested on: Verconica persica (VERPE); assay: Pre-emergence herbicidal action against VERPE; details: dosage 320 g/ha
Procedure, shortened: as §1

[25] = tested on: Abutilon theophrasti (ABUTH); assay: Post-emergence herbicidal action against ABUTH; details: 80 g/ha, visual rating about 3 weeks after treatment vs untreated controls (100% = plants have died, 0% = like control plants)
Procedure, shortened: as §3

[26] = tested on: Lolium rigidum (LOLRI); assay: Post-emergence herbicidal action against LOLRI; details: dosage 80 g/ha
Procedure, shortened: as §3

[27] = tested on: Viola tricolor (VIOTR); assay: Post-emergence herbicidal action against VIOTR; details: 80 g/ha
Procedure, shortened: as §3

[28] = tested on: Triticum aestivum (TRZAS); details: crop plant compatibility, 20 g/ha, effect vs untreated controls
Procedure, shortened: as §4

[29] = tested on: Zea mays (ZEAMX); details: 20 g/ha, ZEAMX, effect in comparison to untreated controls
Procedure, shortened: as §4

[30] = 80 g/ha, visual rating about 3 weeks after treatment vs untreated controls (100% = plants have died, 0% = like control plants)
[31] = 80 g/ha, effect in comparison to untreated controls
[32] = 20 g/ha, effect vs untreated controls

Structure (SMILES) | Pre-emergence action against AMARE in % ([1]; 320 g/ha) [%] | Pre-emergence action against ECHCG in % [2] [%] | Pre-emergence action against LOLRI in % ([3]; dosage 320 g/ha) [%] | Pre-emergence action against MATIN in % [4] [%] | Pre-emergence action against PHBPU in % [5] [%] | Pre-emergence action against SETVI in % ([6]; dosage 320 g/ha) [%] | Pre-emergence action against VIOTR in % ([7]; 320 g/ha, Viola tricolor) [%] | Pre-emergence action against VIOTR in % ([7]; dosage 80 g/ha) [%] | Pre-emergence action against ORYSA in % [8] [%] | Pre-emergence action against ZEAMX in % ([9]; 80 g/ha) [%] | Post-emergence action against AMARE in % [11, 30] [%] | Post-emergence action against ECHCG in % ([13]; dosage 80 g/ha) [%] | Post-emergence action against ORYSA in % [19, 31] [%] | Pre-emergence action against ALOMY ([20]; 80 g/ha) [%] | Pre-emergence action against ALOMY ([20]; 320 g/ha) [%] | Pre-emergence action against AVEFA in % [21] [%] | Pre-emergence action against VERPE in % [24] [%] | Post-emergence action against PHBPU in % ([15]; dosage 80 g/ha) [%] | Post-emergence action against VERPE in % ([18]; dosage 80 g/ha) [%] | Post-emergence action against ORYSA in % [19, 32] [%] | also measured
CCOC(=O)CSc1nn(-c2ccccn2)c(-c2cncc(F)c2)c1C1CC1 [Example I-156] | 100 | 90 | 80 | 80 | 80 | 90 | 90 | 80 | 0 | 0 | 80 | 80 | 0 | – | – | – | – | – | – | – | Pre-emergence action against ZEAMX in % ([9]; 320 g/ha): 20%; Post-emergence action against ALOMY in % ([10]; 320 g/ha): 80%; Post-emergence action against AMARE in % ([11]; 320 g/ha, visual rating about 3 weeks after treatment): 90%; Post-emergence action against AVEFA in % ([12]; 320 g/ha): 90%; Post-emergence action against ECHCG in % ([13]; dosage 320 g/ha): 80%; Post-emergence action against MATIN in % ([14]; dosage 320 g/ha): 80%; Post-emergence action against PHBPU in % ([15]; dosage 320 g/ha): 90%; Post-emergence action against POLCO in % ([16]; dosage 320 g/ha): 80%; Post-emergence action against SETVI in % [17]: 80%; Post-emergence action against VERPE in % ([18]; 320 g/ha, VERPE): 80%
COC(=O)[C@@H](C)NC(=O)COc1nn(-c2ccccn2)c(-c2ccnc(F)c2)c1Br [Example I-59] | 100 | 100 | 100 | – | – | 100 | 90 | 90 | 20 | – | 90 | 80 | 0 | 80 | 100 | 80 | 90 | 80 | 90 | 0 | Pre-emergence action against AMARE in % ([1]; 80 g/ha): 100%; Pre-emergence action against DIGSA in % ([22]; 80 g/ha, visual scoring after about 3 weeks vs untreated controls): 100%; Pre-emergence action against DIGSA in % ([22]; dosage 320 g/ha): 100%; Pre-emergence action against LOLRI in % ([3]; dosage 80 g/ha): 80%; Pre-emergence action against POLCO in % ([23]; dosage 80 g/ha): 80%; Pre-emergence action against POLCO in % ([23]; dosage 320 g/ha): 90%; Pre-emergence action against SETVI in % ([6]; dosage 80 g/ha): 90%; Post-emergence action against ABUTH in % [25]: 80%; Post-emergence action against ALOMY in % ([10]; 80 g/ha): 90%; Post-emergence action against AVEFA in % ([12]; 80 g/ha): 80%; Post-emergence action against LOLRI in % [26]: 80%; Post-emergence action against MATIN in % ([14]; dosage 80 g/ha): 80%; Post-emergence action against POLCO in % ([16]; dosage 80 g/ha): 80%; Post-emergence action against VIOTR in % [27]: 80%
O=C(O)COc1nn(-c2ccccn2)c(-c2ccc(F)nc2)c1I [Example I-103] | 90 | – | 100 | – | 80 | 90 | 90 | – | 0 | 0 | 80 | – | 0 | – | 100 | 80 | 90 | 80 | 80 | 0 | Pre-emergence action against AMARE in % ([1]; 80 g/ha): 80%; Post-emergence action against ABUTH in % [25]: 80%; Post-emergence action against TRZAS in % [28]: 0%
O=C(O)COc1nn(-c2ccccn2)c(-c2ccc(F)nc2)c1C(F)(F)F [Example I-99] | 90 | – | 100 | 90 | – | 90 | 90 | – | 0 | 0 | 80 | – | 0 | 80 | 100 | 90 | 90 | 80 | 80 | 0 | Pre-emergence action against POLCO in % ([23]; dosage 320 g/ha): 90%; Post-emergence action against ALOMY in % ([10]; 80 g/ha): 90%; Post-emergence action against POLCO in % ([16]; dosage 80 g/ha): 90%; Post-emergence action against TRZAS in % [28]: 20%; Post-emergence action against ZEAMX in % (crop plant compatibility) [29]: 0%
